# Molecular target: T1, human iNOS (Homo sapiens, UniProt P35228)
# T1 construct: expressed in transfected cells; host or cells: HEK293
# Experiment: DAN assay of nitric oxide production (hiNOS)
# Assay type: cell-based
# Details: enzyme expressed in HEK293 cells transiently transfected with human iNOS
# In short: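 Human iNOS transiently expressed in HEK293 cells; NO production quantified as nitrite via 2,3-diaminonaphthalene reaction forming fluorescent naphthotriazole.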
# T1 sequence (P35228 whole entry): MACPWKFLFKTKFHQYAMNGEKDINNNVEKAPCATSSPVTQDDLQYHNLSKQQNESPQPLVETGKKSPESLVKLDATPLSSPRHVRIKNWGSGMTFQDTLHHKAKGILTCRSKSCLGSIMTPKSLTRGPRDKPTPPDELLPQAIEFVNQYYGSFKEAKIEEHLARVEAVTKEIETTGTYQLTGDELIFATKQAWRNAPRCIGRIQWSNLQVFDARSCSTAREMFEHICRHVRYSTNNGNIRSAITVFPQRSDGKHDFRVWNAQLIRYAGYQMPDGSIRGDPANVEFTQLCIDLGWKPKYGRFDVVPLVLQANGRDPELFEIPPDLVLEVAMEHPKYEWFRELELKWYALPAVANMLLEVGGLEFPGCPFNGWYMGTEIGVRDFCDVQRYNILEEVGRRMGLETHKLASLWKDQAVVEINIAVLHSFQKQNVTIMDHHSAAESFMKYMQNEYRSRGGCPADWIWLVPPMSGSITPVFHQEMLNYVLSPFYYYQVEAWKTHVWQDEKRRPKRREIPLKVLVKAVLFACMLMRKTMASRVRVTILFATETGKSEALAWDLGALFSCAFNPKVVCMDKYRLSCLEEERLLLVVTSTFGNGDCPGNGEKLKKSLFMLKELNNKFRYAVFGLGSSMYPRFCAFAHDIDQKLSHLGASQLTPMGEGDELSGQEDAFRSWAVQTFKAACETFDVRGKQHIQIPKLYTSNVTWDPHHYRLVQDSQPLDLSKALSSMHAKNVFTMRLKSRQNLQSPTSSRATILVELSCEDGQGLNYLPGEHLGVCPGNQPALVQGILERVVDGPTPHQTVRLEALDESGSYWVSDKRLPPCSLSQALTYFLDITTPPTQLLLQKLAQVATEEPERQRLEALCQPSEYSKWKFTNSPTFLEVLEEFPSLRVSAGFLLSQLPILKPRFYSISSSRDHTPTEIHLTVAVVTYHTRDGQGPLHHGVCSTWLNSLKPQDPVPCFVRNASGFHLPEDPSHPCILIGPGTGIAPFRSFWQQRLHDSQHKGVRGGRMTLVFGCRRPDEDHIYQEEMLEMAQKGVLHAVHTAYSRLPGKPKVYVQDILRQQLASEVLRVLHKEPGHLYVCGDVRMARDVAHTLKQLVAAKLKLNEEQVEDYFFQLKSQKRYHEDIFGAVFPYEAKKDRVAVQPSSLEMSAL
row,Structure (SMILES),EC50
1,"Cc1ncsc1C(=O)N(c1cccc(Cl)c1)C(F)c1cc(=O)[nH]c2c(F)cccc12 (stereo not drawn) [Example 253, N-(3-Chlorophenyl)-N-(fluoro(8-fluoro-2-oxo-1,2-dihydroquinolin-4-yl)methyl)-4-methylthiazole-5-carboxamide]",≤ 5 µM
2,"Cc1nc(C)n(Cc2cc(=O)[nH]c3c(F)c(F)ccc23)c1C [Example 256, 7,8-Difluoro-4((2,4,5-trimethyl-1H-imidazol-1-yl)methyl)quinolin-2(1H)-one]",> 5 µM
3,"COc1cccc(N(Cc2cc(=O)[nH]c3c(F)cccc23)C(=O)c2scnc2C)c1 [Example 262, N-((8-Fluoro-2-oxo-1,2-dihydroquinolin-4-yl)methyl)-N-(3-methoxyphenyl)-4-methylthiazole-5-carboxamide]",≤ 5 µM
4,"Cc1ncsc1C(=O)N(Cc1cc(=O)[nH]c2c(F)c(F)ccc12)c1cccnc1 [Example 263, N-((7,8-Difluoro-2-oxo-1,2-dihydroquinolin-4-yl)methyl)-4-methyl-N-(pyridin-3-yl)thiazole-5-carboxamide]",≤ 5 µM
5,"Cc1ncsc1C(=O)N(Cc1cc(=O)[nH]c2c(F)c(F)ccc12)c1ccccn1 [Example 264, N-((7,8-Difluoro-2-oxo-1,2-dihydroquinolin-4-yl)methyl)-4-methyl-N-(pyridin-2-yl)thiazole-5-carboxamide]",> 5 µM
6,"Cc1nc(S(=O)(=O)N(Cc2cc(=O)[nH]c3c(F)c(F)ccc23)c2cccc(Cl)c2)cn1C [Example 265, N-(3-Chlorophenyl)-N-((7,8-difluoro-2-oxo-1,2-dihydroquinolin-4-yl)methyl)-1,2-dimethyl-1H-imidazole-4-sulfonamide]",≤ 5 µM

# Further lines, results first:
row,EC50,Structure (SMILES)
1,≤ 5 µM,"O=c1cc(Cn2c(-c3ccncc3Cl)nc3ccccc32)c2ccc(F)c(F)c2[nH]1 [Example 248, 4-((2-(3-Chloropyridin-4-yl)-1H-benzo[d]imidazol-1-yl)methyl)-7,8-difluoroquinolin-2(1H)-one]"
2,> 5 µM,"O=c1cc(Cn2c(Cn3ccnc3)nc3ccccc32)c2ccc(F)c(F)c2[nH]1 [Example 251, 4-((2-((1H-Imidazol-1-yl)methyl)-1H-benzo[d]imidazol-1-yl)methyl)-7,8-difluoroquinolin-2(1H)-one]"
3,≤ 5 µM,"O=C1CCN(c2ccccc2)N1Cc1cc(=O)[nH]c2c(F)c(F)ccc12 [Example 252, 7,8-Difluoro-4-((5-oxo-2-phenylpyrazolidin-1-yl)methyl)quinolin-2(1H)-one]"
4,≤ 5 µM,"CC(C)c1cn(Cc2cc(=O)[nH]c3c(F)c(F)ccc23)c(-c2ccccc2)n1 [Example 254, 7,8-Difluoro-4-((4-isopropyl-2-phenyl-1H-imidazol-1-yl)methyl)quinolin-2(1H)-one]"
5,> 5 µM,"CC(C)c1ncc(-c2ccccc2)n1Cc1cc(=O)[nH]c2c(F)c(F)ccc12 [Example 255, 7,8-Difluoro-4-((2-isopropyl-5-phenyl-1H-imidazol-1-yl)methyl)quinolin-2(1H)-one]"
6,≤ 5 µM,"Cc1nc(-c2cccc(Cl)c2)n(Cc2cc(=O)[nH]c3c(F)c(F)ccc23)c1C [Example 257, 4-((2-(3-Chlorophenyl)-4,5-dimethyl-1H-imidazol-1-yl)methyl)-7,8-difluoroquinolin-2(1H)-one]"
7,> 5 µM,"Cc1c(-c2ccccc2)nc(C(C)C)n1Cc1cc(=O)[nH]c2c(F)c(F)ccc12 [Example 258, 7,8-Difluoro-4-((2-isopropyl-5-methyl-4-phenyl-1H-imidazol-1-yul)methyl)quinolin-2(1H)-one]"
8,> 5 µM,"O=c1cc(Cn2cnc(-c3ccccc3)c2)c2ccc(F)c(F)c2[nH]1 [Example 260, 7,8-Difluoro-4-((4-phenyl-1H-imidazol-1-yl)methyl)quinolin-2(1H)-one]"
9,≤ 5 µM,"O=c1cc(CN(c2cccc(Cl)c2)S(=O)(=O)c2cccnc2)c2ccc(F)c(F)c2[nH]1 [Example 261, N-(3-chlorophenyl)-N-((7,8-difluoro-2-oxo-1,2-dihydroquinolin-4-yl)methyl)pyridine-3-sulfonamide]"

# — US20080139558A1, “QUINOLONES USEFUL AS INDUCIBLE NITRIC OXIDE SYNTHASE INHIBITORS” (KALYPSYS, INC., priority 2006, published 2008)
